Measured values: PMC5362750, “Discovery of Potent, Selective, and Orally Bioavailable Small-Molecule Modulators of the Mediator Complex-Associated Kinases CDK8 and CDK19” (Journal of Medicinal Chemistry, 2016)

Columns and labels:
BTK = BTK (Homo sapiens, UniProt Q06187); test: Kinase panel (Millipore); format: biochemical; details: 1 µM, ATP at Km
PRKCQ = target: T1, PRKCQ (Homo sapiens, UniProt Q04759); test: Kinase panel (Millipore); format: biochemical; details: 1 µM, ATP at Km
T1 construct: purchased Millipore (KinaseProfiler) kinase panel
T1 sequence (Q04759 whole entry): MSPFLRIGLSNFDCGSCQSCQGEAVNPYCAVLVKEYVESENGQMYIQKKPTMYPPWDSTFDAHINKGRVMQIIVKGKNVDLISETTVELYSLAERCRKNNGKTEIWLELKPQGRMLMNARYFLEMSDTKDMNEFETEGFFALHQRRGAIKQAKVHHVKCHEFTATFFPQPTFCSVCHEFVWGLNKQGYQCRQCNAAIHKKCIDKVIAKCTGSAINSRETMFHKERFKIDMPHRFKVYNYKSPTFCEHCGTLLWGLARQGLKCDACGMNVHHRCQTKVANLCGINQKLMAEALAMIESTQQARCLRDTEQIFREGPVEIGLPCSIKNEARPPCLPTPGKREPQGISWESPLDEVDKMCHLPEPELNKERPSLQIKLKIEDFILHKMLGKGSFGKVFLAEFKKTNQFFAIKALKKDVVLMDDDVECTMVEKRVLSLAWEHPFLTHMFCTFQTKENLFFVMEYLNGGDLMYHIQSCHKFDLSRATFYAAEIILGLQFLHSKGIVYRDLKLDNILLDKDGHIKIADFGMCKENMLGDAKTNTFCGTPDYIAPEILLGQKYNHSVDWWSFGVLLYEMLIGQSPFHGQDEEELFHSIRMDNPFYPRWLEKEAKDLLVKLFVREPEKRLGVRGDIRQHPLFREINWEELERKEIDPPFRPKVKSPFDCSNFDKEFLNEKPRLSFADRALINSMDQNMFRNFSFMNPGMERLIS

DMPK = DMPK (Homo sapiens, UniProt Q09013); test: Kinase panel (Millipore); format: biochemical; details: 1 µM, ATP at Km
ABL (Q252H) = ABL (Q252H) (Homo sapiens, UniProt P00519, Q252H); details: 1 µM, ATP at Km
PI3K BETA = PI3K BETA (Homo sapiens, UniProt P42338); test: Kinase panel (Millipore); format: biochemical; details: 1 µM, ATP at Km
RON = target: T2, RON (Homo sapiens, UniProt Q04912); test: Kinase panel (Millipore); format: biochemical; details: 1 µM, ATP at Km
T2 construct: purchased Millipore (KinaseProfiler) kinase panel
T2 sequence (Q04912 25-1400): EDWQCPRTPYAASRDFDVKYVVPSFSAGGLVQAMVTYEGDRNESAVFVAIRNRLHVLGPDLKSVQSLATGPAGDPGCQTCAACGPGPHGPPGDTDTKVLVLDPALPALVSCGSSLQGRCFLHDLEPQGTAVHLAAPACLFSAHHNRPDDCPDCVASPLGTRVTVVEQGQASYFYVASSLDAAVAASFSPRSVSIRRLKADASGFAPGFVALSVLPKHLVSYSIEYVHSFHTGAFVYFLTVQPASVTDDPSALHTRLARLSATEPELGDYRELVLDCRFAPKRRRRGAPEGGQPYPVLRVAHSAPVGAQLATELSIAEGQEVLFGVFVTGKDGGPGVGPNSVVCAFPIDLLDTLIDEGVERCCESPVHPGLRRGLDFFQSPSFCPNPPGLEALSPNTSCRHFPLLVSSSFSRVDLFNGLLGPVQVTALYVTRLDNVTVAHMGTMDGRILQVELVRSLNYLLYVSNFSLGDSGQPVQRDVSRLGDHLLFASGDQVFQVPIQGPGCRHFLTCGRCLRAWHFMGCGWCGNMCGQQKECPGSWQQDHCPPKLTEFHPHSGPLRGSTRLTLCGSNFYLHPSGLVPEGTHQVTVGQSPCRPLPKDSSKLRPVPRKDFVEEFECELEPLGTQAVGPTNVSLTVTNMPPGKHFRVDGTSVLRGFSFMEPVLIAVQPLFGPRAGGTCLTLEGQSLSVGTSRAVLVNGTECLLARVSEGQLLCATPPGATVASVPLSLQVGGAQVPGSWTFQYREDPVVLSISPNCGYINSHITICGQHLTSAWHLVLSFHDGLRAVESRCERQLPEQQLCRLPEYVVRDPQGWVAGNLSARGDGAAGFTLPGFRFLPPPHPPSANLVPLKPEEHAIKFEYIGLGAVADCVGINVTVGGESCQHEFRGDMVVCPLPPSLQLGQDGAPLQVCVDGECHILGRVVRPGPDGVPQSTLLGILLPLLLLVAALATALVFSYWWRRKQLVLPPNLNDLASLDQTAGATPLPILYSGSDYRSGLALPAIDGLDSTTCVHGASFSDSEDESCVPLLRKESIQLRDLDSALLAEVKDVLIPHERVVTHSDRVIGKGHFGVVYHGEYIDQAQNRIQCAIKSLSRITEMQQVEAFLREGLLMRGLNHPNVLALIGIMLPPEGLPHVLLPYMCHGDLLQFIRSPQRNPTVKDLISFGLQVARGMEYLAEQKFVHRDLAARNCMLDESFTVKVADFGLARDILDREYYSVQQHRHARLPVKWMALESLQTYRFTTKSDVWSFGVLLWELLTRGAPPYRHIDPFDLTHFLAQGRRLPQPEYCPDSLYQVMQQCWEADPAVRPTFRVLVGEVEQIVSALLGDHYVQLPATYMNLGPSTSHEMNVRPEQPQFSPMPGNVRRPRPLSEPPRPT

V2 (h) = target: T3, V2 (h) (Homo sapiens, UniProt P30518); test: CEREP binding assay; details: agonist radioligand, read-out: % Inhibition of Control Specific Binding
T3 construct: CEREP

RSK1 = target: T4, RSK1 (Homo sapiens, UniProt Q15418); test: Kinase panel (Millipore); format: biochemical; details: 1 µM, ATP at Km
T4 construct: purchased Millipore (KinaseProfiler) kinase panel

SRC = SRC (Homo sapiens, UniProt P12931); test: Kinase panel (Millipore); format: biochemical; details: 1 µM, ATP at Km
FGFR1 = target: T5, FGFR1 (Homo sapiens, UniProt P11362); test: Kinase panel (Millipore); format: biochemical; details: 1 µM, ATP at Km
T5 construct: purchased Millipore (KinaseProfiler) kinase panel

PI3K DELTA = PI3K DELTA (Homo sapiens, UniProt O00329); test: Kinase panel (Millipore); format: biochemical; details: 1 µM, ATP at Km
GCK = target: T6, GCK (Homo sapiens, UniProt Q12851); test: Kinase panel (Millipore); format: biochemical; details: 1 µM, ATP at Km
T6 construct: purchased Millipore (KinaseProfiler) kinase panel
T6 sequence (Q12851 whole entry): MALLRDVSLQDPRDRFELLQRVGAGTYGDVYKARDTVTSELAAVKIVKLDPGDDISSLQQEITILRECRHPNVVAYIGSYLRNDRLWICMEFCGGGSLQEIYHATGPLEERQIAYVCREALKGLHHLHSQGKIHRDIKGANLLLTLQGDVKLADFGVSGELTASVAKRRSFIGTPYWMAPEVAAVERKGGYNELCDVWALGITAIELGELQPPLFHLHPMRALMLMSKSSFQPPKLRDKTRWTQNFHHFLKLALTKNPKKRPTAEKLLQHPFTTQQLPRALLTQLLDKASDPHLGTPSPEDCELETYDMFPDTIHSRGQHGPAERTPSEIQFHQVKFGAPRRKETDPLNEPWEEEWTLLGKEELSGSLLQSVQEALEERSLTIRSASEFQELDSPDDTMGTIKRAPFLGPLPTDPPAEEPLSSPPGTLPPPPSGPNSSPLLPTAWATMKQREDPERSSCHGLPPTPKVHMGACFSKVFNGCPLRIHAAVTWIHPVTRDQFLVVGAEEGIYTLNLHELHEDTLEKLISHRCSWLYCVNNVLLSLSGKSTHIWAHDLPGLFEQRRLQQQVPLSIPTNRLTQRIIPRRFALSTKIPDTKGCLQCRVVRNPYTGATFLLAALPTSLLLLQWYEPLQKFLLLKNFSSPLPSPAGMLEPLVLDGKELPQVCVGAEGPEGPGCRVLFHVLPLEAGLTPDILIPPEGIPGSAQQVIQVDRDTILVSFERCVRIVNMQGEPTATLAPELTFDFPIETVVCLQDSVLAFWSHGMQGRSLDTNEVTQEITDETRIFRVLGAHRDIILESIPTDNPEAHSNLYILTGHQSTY

EPHA4 = target: T7, EPHA4 (Homo sapiens, UniProt P54764); test: Kinase panel (Millipore); format: biochemical; details: 1 µM, ATP at Km
T7 construct: purchased Millipore (KinaseProfiler) kinase panel

CRF1 (h) = target: T8, CRF1 (h) (Homo sapiens, UniProt P34998); test: CEREP binding assay; details: agonist radioligand, read-out: % Inhibition of Control Specific Binding
T8 construct: purchased Millipore (KinaseProfiler) kinase panel

TSSK2 = target: T9, TSSK2 (Homo sapiens, UniProt Q96PF2); test: Kinase panel (Millipore); format: biochemical; details: 1 µM, ATP at Km
T9 construct: purchased Millipore (KinaseProfiler) kinase panel

cMET (M1268T) = cMET (M1268T) (Homo sapiens, UniProt P08581, M1250T); details: 1 µM, ATP at Km
cMET (Y1248C) = cMET (Y1248C) (Homo sapiens, UniProt P08581, Y1230C); details: 1 µM, ATP at Km
CB2 (h) = CB2 (h) (Homo sapiens, UniProt P34972); test: biochemical; details: read-out: % Inhibition of Control Specific Binding
CHK1 = CHK1 (Homo sapiens, UniProt O14757); test: Kinase panel (Millipore); format: biochemical; details: 1 µM, ATP at Km
ABL (H396P) = ABL (H396P) (Homo sapiens, UniProt P00519, H396P); details: 1 µM, ATP at Km
CRAF = CRAF (Homo sapiens, UniProt P04049); test: Kinase panel (Millipore); format: biochemical; details: 1 µM, ATP at Km
M4 (h) = M4 (h) (Homo sapiens, UniProt P08173); test: biochemical; details: read-out: % Inhibition of Control Specific Binding
M4 (h), sequence (P08173 whole entry): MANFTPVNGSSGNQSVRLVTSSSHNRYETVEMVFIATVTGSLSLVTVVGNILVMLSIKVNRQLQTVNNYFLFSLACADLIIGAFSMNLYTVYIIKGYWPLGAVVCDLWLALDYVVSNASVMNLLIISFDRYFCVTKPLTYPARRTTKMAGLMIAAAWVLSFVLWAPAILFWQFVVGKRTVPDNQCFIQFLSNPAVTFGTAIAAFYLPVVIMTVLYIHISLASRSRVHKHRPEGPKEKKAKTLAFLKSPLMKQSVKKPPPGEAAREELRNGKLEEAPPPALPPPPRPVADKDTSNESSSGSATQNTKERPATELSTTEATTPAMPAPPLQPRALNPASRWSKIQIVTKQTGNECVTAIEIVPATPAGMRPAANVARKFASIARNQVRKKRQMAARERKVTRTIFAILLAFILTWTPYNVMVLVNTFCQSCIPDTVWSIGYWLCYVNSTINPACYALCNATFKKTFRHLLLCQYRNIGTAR

FER = target: T10, FER (Homo sapiens, UniProt P16591); test: Kinase panel (Millipore); format: biochemical; details: 1 µM, ATP at Km
T10 construct: purchased Millipore (KinaseProfiler) kinase panel

STK33 = STK33 (Homo sapiens, UniProt Q9BYT3); details: 1 µM, ATP at Km
CK2 = CK2 (Homo sapiens, UniProt P68400); details: 1 µM, ATP at Km
CK2, sequence (P68400 whole entry): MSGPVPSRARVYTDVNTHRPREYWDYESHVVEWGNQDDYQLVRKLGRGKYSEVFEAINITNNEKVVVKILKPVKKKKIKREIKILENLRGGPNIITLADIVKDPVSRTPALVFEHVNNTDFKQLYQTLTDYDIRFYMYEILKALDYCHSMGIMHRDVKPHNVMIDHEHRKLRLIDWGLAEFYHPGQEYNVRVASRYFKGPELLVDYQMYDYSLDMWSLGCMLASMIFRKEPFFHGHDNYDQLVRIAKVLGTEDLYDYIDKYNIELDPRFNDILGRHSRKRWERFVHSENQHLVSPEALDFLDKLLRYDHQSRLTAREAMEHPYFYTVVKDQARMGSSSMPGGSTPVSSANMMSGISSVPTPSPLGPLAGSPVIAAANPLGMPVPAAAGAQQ
CK2, sequence (P67870 whole entry partner): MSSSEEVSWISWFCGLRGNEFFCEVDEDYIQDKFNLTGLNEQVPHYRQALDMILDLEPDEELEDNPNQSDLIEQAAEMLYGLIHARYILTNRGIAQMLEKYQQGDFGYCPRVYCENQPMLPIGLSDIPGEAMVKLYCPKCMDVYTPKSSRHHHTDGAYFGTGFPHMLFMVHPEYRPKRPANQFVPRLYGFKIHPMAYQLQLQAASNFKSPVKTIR

ABL(T315I) = ABL(T315I) (Homo sapiens, UniProt P00519, T315I); details: 1 µM, ATP at Km
5-HT2A (h) = 5-HT2A (h) (Homo sapiens, UniProt P28223); test: biochemical; details: read-out: % Inhibition of Control Specific Binding
PKCDELTA = PKCDELTA (Homo sapiens, UniProt Q05655); test: Kinase panel (Millipore); format: biochemical; details: 1 µM, ATP at Km
FP (h) = target: T11, FP (h) (Homo sapiens, UniProt P43088); test: CEREP binding assay; details: agonist radioligand, read-out: % Inhibition of Control Specific Binding
T11 construct: purchased Millipore (KinaseProfiler) kinase panel

MNK2 = target: T12, MNK2 (Homo sapiens, UniProt Q9HBH9); test: Kinase panel (Millipore); format: biochemical; details: 1 µM, ATP at Km
T12 construct: purchased Millipore (KinaseProfiler) kinase panel

ETB (h) = target: T13, ETB (h) (Homo sapiens, UniProt P24530); test: CEREP binding assay; details: agonist radioligand, read-out: % Inhibition of Control Specific Binding
T13 construct: purchased Millipore (KinaseProfiler) kinase panel
T13 sequence (P24530 27-442): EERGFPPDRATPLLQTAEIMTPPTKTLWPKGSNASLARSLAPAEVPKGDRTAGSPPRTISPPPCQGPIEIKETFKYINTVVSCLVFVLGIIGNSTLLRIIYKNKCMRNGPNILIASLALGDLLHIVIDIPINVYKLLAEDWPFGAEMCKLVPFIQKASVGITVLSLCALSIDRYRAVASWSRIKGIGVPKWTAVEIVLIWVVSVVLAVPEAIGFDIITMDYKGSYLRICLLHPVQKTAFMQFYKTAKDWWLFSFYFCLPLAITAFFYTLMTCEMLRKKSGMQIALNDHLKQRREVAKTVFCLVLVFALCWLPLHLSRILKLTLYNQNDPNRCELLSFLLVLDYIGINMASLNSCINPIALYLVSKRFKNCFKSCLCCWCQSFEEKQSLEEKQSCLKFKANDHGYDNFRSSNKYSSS

PKCBETAI = PKCBETAI (Homo sapiens, UniProt P05771); test: Kinase panel (Millipore); format: biochemical; details: 1 µM, ATP at Km
[1] = test system: STAT1^SER727 phosphorylation; details: 30 mg/kg q.d. oral
A1 (h) = A1 (h) (Homo sapiens, UniProt P30542); test: CEREP binding assay; details: agonist radioligand, read-out: % Inhibition of Control Specific Binding
VRK2 = target: T14, VRK2 (Homo sapiens, UniProt Q86Y07); test: Kinase panel (Millipore); format: biochemical; details: 1 µM, ATP at Km
T14 construct: purchased Millipore (KinaseProfiler) kinase panel

MLK1 = target: T15, MLK1 (Homo sapiens, UniProt P80192); test: Kinase panel (Millipore); format: biochemical; details: 1 µM, ATP at Km
T15 construct: purchased Millipore (KinaseProfiler) kinase panel

TR (TH) = details: 10 µM, agonist radioligand
TLK2 = target: T16, TLK2 (Homo sapiens, UniProt Q86UE8); test: Kinase panel (Millipore); format: biochemical; details: 1 µM, ATP at Km
T16 construct: purchased Millipore (KinaseProfiler) kinase panel

CK1GAMMA1 = CK1GAMMA1 (Homo sapiens, UniProt Q9HCP0); test: Kinase panel (Millipore); format: biochemical; details: 1 µM, ATP at Km
IGF-1R = target: T17, IGF-1R (Homo sapiens, UniProt P08069); test: Kinase panel (Millipore); format: biochemical; details: 1 µM, ATP at Km
T17 construct: purchased Millipore (KinaseProfiler) kinase panel

PAF (h) = target: T18, PAF (h) (Homo sapiens, UniProt P25105); test: CEREP binding assay; details: agonist radioligand, read-out: % Inhibition of Control Specific Binding
T18 construct: purchased Millipore (KinaseProfiler) kinase panel
T18 sequence (P25105 whole entry): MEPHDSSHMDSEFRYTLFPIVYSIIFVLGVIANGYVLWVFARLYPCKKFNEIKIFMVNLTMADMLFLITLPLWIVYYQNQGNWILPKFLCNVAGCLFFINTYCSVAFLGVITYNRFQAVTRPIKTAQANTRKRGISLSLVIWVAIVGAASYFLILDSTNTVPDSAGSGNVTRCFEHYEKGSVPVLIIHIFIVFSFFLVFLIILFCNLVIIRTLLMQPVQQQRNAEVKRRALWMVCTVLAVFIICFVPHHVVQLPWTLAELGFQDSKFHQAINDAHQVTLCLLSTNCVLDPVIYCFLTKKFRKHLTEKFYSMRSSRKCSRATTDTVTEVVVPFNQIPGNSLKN

EGFR(L858R) = EGFR(L858R) (Homo sapiens, UniProt P00533, L858R); details: 1 µM, ATP at Km

Structure (SMILES): Cn1ncc2cc(-c3cnc(N)c(Cl)c3N3CCC4(CCNC4=O)CC3)ccc21 [Compound 109, 8-(2-Amino-3-chloro-5-(1-methyl-1H-indazol-5-yl)pyridin-4-yl)-2,8-diazaspiro[4.5]decan-1-one]
- % effect (BTK): 6%
- % effect (PRKCQ): -13%
- % effect (DMPK): 4%
- % effect (ABL (Q252H)): -10%
- % effect (PI3K BETA): 2%
- % effect (RON): -1%
- inhibition at 10 µM (V2 (h)): 2%
- % effect (RSK1): 13%
- % effect (SRC): 7%
- % effect (FGFR1): 7%
- % effect (PI3K DELTA): 6%
- % effect (GCK): -10%
- % effect (EPHA4): 5%
- inhibition at 10 µM (CRF1 (h)): -7%
- % effect (TSSK2): 9%
- % effect (cMET (M1268T)): 1%
- % effect (cMET (Y1248C)): -3%
- inhibition at 10 µM (CB2 (h)): 29%
- % effect (CHK1): -8%
- % effect (ABL (H396P)): -4%
- % effect (CRAF): -10%
- inhibition at 10 µM (M4 (h)): 22%
- % effect (FER): 15%
- % effect (STK33): 0%
- % effect (CK2): 3%
- % effect (ABL(T315I)): 4%
- inhibition at 10 µM (5-HT2A (h)): -10%
- % effect (PKCDELTA): 6%
- inhibition at 10 µM (FP (h)): -1%
- % effect (MNK2): -3%
- inhibition at 10 µM (ETB (h)): -23%
- % effect (PKCBETAI): -4%
- duration of reduced STAT1 SER727 phosphorylation after the last dose [1]: more than 6 h
- inhibition at 10 µM (A1 (h)): -4%
- % effect (VRK2): 3%
- % effect (MLK1): -10%
- % Inhibition of Control Specific Binding (TR (TH)): -13%
- % effect (TLK2): -5%
- % effect (CK1GAMMA1): -5%
- % effect (IGF-1R): -26%
- inhibition at 10 µM (PAF (h)): -4%
- % effect (EGFR(L858R)): -4%
